Like-named read-outs stand apart in the source and are kept apart here.
Experiments:
[1] = tested on: human immunodeficiency virus type 1 (HIV-1); assay: Inhibitory activity against HIV (EC50), cell-based luciferase reporter assay
Source text: […]. Experimental procedures were essentially as described by Connor et al. in Journal of Virology (1996), 70: 5306-5311 (Characterization of the functional properties of env genes from long-term survivors of human immunodeficiency virus type 1 infection), and Popik et al. in Journal of Virology (2002), 76: 4709-4722 (Human immunodeficiency virus type 1 uses lipid raft-colocalized CD4 and chemokine receptors for productive entry into CD4^+ T cells). It should be particularly appreciated that the virus contains two introduced mutations in the RT gene (K103N and Y181C, created by PCR mutagenesis) that render the virus highly resistant to current non-nucleoside HIV-1 drugs. Virus stocks were generated by cotransfection of plasmid DNA encoding VSV-G with vector pNL4-3Env(−)Luc(+) into 293T cells. Sixty-four hours after transfection, virus-containing medium was collected by centrifugation and stored frozen at −80° C.
HeLa cells were infected with the VSV-G pseudotyped virus in the presence of screening compounds in a 384-well microtiter plate format. Forty-eight hours after initial infection, lysis buffer and Luciferase Assay Reagent (Promega) was added to the cells and luciferase activity was determined by counting the resultant luminescence using a LJL luminometer. Since the luciferase gene is carried in the virus genome, its expression level directly reflects the virus replication level in the presence of a compound.
To evaluate the activity of the compounds against wild type HIV-1, the HeLa-JC53 cell line that expresses high levels of CD4 and CCR5 (see e.g., Platt et al. in Journal of Virology (1998), 72: 2855-2864: Effect of CCR5 and CD4 cell surface concentrations on infection by macrophagetropic isolates of human immunodeficiency virus type 1) was modified by isolation of a stable cell line that expresses luciferase under the control of the HIV-1 promoter (long terminal repeat, i.e., LTR). HIV-1 infection of this cell line stimulates the transcription of luciferase from the HIV-1 promoter and the luciferase gene expression level is proportional to the level of virus replication (Harrington et al. in Journal of Virology Methods (2000), 88: 111-115: Direct detection of infection of HIV-1 in blood using a centrifugation-indicator cell assay; and Roos et al. in Virology (2000), 273: 307-315: LuSIV cells: a reporter cell line for the detection and quantitation of a single cycle of HIV and SIV replication). Procedures for virus infection, compound testing and luciferase activity determination were the same as for the VSV-G pseudotyped HIV-1.

[2] = molecular target: T1, wild-type HIV RT (Human immunodeficiency virus type 1 group M subtype B, UniProt P03366); assay: IC50 for wild-type HIV RT; type: biochemical
T1 construct: IC50 is indicated in microM for wild-type HIV RT

[3] = Table 1, inhibitory activity against HIV, read-out: EC50

SMILES	EC50 [1, 3]	IC50 ([2]; Table 1)	EC50 ([1]; Human immunodeficiency virus 1)	IC50 ([2]; Table 1, numeric value)
Cc1nnc(SCC(=O)Nc2ccccc2C(F)(F)F)n1-c1ccccc1Cl [compound 23]	> 100 µM			
O=C(CSc1nnc(-c2ccncc2)n1-c1ccccc1)Nc1ccccc1I [compound 24]	> 100 µM			
O=C(CSc1nnc(-c2ccc(Cl)cc2)n1-c1ccccc1)Nc1ccccn1 [compound 25]	> 100 µM			
Cc1ccccc1NC(=O)CSc1nnc(-c2ccc(Cl)cc2)[nH]1 [compound 26]	10 to 100 µM			
Cn1c(SCC(=O)Nc2ccccc2)nnc1-c1ccc(Br)cc1 [compound 27]	> 100 µM			
Cc1ccc(NC(=O)CSc2nnc(Cc3ccccc3)n2C)c(Br)c1 [compound 29]	> 100 µM	10 to 100 µM		
Cc1ccc(NC(=O)CSc2nnc(C)n2-c2ccccc2)cc1C [compound 30]	> 100 µM			
Cc1ccc(NCc2nnc(SCC(=O)Nc3ccc(C)cc3Br)n2-c2ccccc2)cc1 [compound 33]		10 to 100 µM	> 100 µM	
O=C(CSc1nnc(C2CCCCC2)n1-c1ccccc1)Nc1ccccc1Br [compound 34]		10 to 100 µM	> 100 µM	
Cc1ccc(-n2c(SCC(=O)Nc3ccc(C)cc3Br)nnc2-c2ccncc2)cc1 [compound 36]	> 100 µM			
Cc1ccc(-c2nnc(SCC(=O)Nc3ccccc3Br)n2C)cc1 [compound 37]	> 100 µM			
Cc1ccc(-n2c(C)nnc2SCC(=O)Nc2ccc(C)c(Cl)c2)cc1 [compound 39]	> 100 µM			
Cc1cccc(NC(=O)CSc2nnc(C)n2-c2ccccc2)c1 [compound 40]	> 100 µM	10 to 100 µM		
CC(=O)c1ccc(NC(=O)CSc2nnc(C)n2-c2ccc(C)cc2)cc1 [compound 41]		10 to 100 µM	> 100 µM	
Cc1ccc(NC(=O)CSc2nnc(COc3ccc(C#N)cc3)n2-c2ccccc2)c(Br)c1 [compound 44]		10 to 100 µM	> 100 µM	
Cc1ccc(NC(=O)C(C)Sc2nnc(C)n2-c2ccc(C)cc2)cc1 (stereo not drawn) [compound 45]	> 100 µM			36.3 µM
Cc1ccc(NC(=O)CSc2nnc(-c3ccncc3)n2-c2ccccc2Cl)c(Br)c1 [compound 46]		> 100 µM	> 100 µM	
Cc1ccc(NC(=O)CSc2nnc(C)n2-c2ccccc2)cc1 [compound 47]	> 100 µM			
Cc1nnc(SCC(=O)Nc2ccccc2)n1-c1ccccc1 [compound 49]	> 100 µM			
Cc1cc(C)c(NC(=O)CSc2nnc(C)n2-c2ccccc2)c(C)c1 [compound 51]	> 100 µM			
Cc1ccc(NC(=O)CSc2nnc(-c3ccccc3C)n2-c2ccccc2)c(Br)c1 [compound 52]		10 to 100 µM	> 100 µM	
